ChEMBL document CHEMBL4359906, “Design and synthesis of new N-terminal fatty acid modified-antimicrobial peptide analogues with potent in vitro biological activity” (Eur J Med Chem, 2019)
Converted amounts (≈) assume the structure as drawn. The source made the active and inactive calls. The calls are words filed in the database; no cut-off is given here. Where a SMILES comes first, the peptide text is derived from it. Bridges are numbered along the chain shown (N, C = ends). [ ]: non-standard residue; d: D form. The star is where a group is joined. X1 = CC[C@H](C)CCCCC(=O)*; Dab = NCC[C@H](N)C(=O)O

How the values were obtained:
Escherichia coli [1] = experiment: Antibacterial activity against Escherichia coli ATCC 25922 after 18 hrs by CLSI based broth microdilution method; format: functional
Escherichia coli [2] = experiment: Antibacterial activity against Escherichia coli ATCC 43837 after 18 hrs by CLSI based broth microdilution method; format: functional
Klebsiella pneumoniae = experiment: Antibacterial activity against Klebsiella pneumoniae ATCC 700603 after 18 hrs by CLSI based broth microdilution method; format: functional
Pseudomonas aeruginosa = experiment: Antibacterial activity against Pseudomonas aeruginosa ATCC 27853 after 18 hrs by CLSI based broth microdilution method; format: functional
Staphylococcus aureus [3] = experiment: Antibacterial activity against Staphylococcus aureus ATCC 25923 after 18 hrs by CLSI based broth microdilution method; format: functional; settings: ATCC 25923, 18 h
Staphylococcus aureus [4] = experiment: Antibacterial activity against methicillin-resistant Staphylococcus aureus 936 after 18 hrs by CLSI based broth microdilution method; format: functional; settings: Staphylococcus aureus, 936, 18 h
Bacillus subtilis = experiment: Antibacterial activity against Bacillus subtilis ATCC 23857 after 18 hrs by CLSI based broth microdilution method; format: functional; settings: ATCC 23857, 18 h
Escherichia coli [5] = experiment: Antibacterial activity against Escherichia coli ATCC 25922 after 18 hrs in presence of NaCl by CLSI based broth microdilution method (reference value: 4 microM); format: functional; settings: ATCC 25922, 18 h
Escherichia coli [6] = experiment: Antibacterial activity against Escherichia coli ATCC 25922 after 18 hrs in presence of KCl by CLSI based broth microdilution method (reference value: 4 microM); format: functional; settings: ATCC 25922, 18 h
Escherichia coli [7] = experiment: Antibacterial activity against Escherichia coli ATCC 25922 after 18 hrs in presence of MgCl2 by CLSI based broth microdilution method (reference value: 4 microM); format: functional; settings: ATCC 25922, 18 h
Escherichia coli [8] = experiment: Antibacterial activity against Escherichia coli ATCC 25922 after 18 hrs in presence of FeCl3 by CLSI based broth microdilution method (reference value: 4 microM); format: functional; settings: ATCC 25922, 18 h
Staphylococcus aureus [9] = experiment: Antibacterial activity against Staphylococcus aureus ATCC 25923 after 18 hrs in presence of NaCl by CLSI based broth microdilution method (reference value: 16 microM); format: functional; settings: ATCC 25923, 18 h
Staphylococcus aureus [10] = experiment: Antibacterial activity against Staphylococcus aureus ATCC 25923 after 18 hrs in presence of KCl by CLSI based broth microdilution method (reference value: 16 microM); format: functional; settings: ATCC 25923, 18 h
Staphylococcus aureus [11] = experiment: Antibacterial activity against Staphylococcus aureus ATCC 25923 after 18 hrs in presence of MgCl2 by CLSI based broth microdilution method (reference value: 16 microM); format: functional; settings: ATCC 25923, 18 h
Staphylococcus aureus [12] = experiment: Antibacterial activity against Staphylococcus aureus ATCC 25923 after 18 hrs in presence of FeCl3 by CLSI based broth microdilution method (reference value: 16 microM); format: functional; settings: ATCC 25923, 18 h
Escherichia coli [13] = experiment: Disruption of membrane integrity in Escherichia coli ATCC 25922 assessed as membrane damage by measuring PI fluorescence at 4 times of MIC incubated for 1 hr by PI dye based flow cytometric analysis (reference value: 1.35%); format: functional
Escherichia coli [14] = experiment: Disruption of membrane integrity in Escherichia coli ATCC 25922 assessed as membrane damage by measuring PI fluorescence at 2 times of MIC incubated for 1 hr by PI dye based flow cytometric analysis (reference value: 1.35%); format: functional
Escherichia coli [15] = experiment: Induction of membrane disruption in Escherichia coli ATCC 25922 assessed as rough membrane surface at 4 times of MIC after 2 hrs by SEM analysis; format: functional, organism-based
Escherichia coli [16] = experiment: Induction of membrane disruption in Escherichia coli ATCC 25922 assessed as corrugated membrane surface at 4 times of MIC after 2 hrs by SEM analysis; format: functional, organism-based
Escherichia coli [17] = experiment: Induction of membrane disruption in Escherichia coli ATCC 25922 assessed as degeneration in membrane at 4 times of MIC after 2 hrs by SEM analysis; format: functional, organism-based
DNA = experiment: Binding affinity to Escherichia coli ATCC 25922 genomic DNA at 4 x MIC after 30 mins by agarose gel electrophoresis; format: nucleic-acid assay
Escherichia coli [18] = experiment: Ratio of antibacterial activity against Escherichia coli ATCC 25922 in presence of NaCl to antibacterial activity against Escherichia coli ATCC 25922; format: functional
Escherichia coli [19] = experiment: Ratio of antibacterial activity against Escherichia coli ATCC 25922 in presence of KCl to antibacterial activity against Escherichia coli ATCC 25922; format: functional
Escherichia coli [20] = experiment: Ratio of antibacterial activity against Escherichia coli ATCC 25922 in presence of MgCl2 to antibacterial activity against Escherichia coli ATCC 25922; format: functional
Escherichia coli [21] = experiment: Ratio of antibacterial activity against Escherichia coli ATCC 25922 in presence of FeCl3 to antibacterial activity against Escherichia coli ATCC 25922; format: functional
Staphylococcus aureus [22] = experiment: Ratio of antibacterial activity against Staphylococcus aureus ATCC 25923 in presence of NaCl to antibacterial activity against Staphylococcus aureus ATCC 25923; format: functional
Staphylococcus aureus [23] = experiment: Ratio of antibacterial activity against Staphylococcus aureus ATCC 25923 in presence of KCl to antibacterial activity against Staphylococcus aureus ATCC 25923; format: functional
Staphylococcus aureus [24] = experiment: Ratio of antibacterial activity against Staphylococcus aureus ATCC 25923 in presence of MgCl2 to antibacterial activity against Staphylococcus aureus ATCC 25923; format: functional
Staphylococcus aureus [25] = experiment: Ratio of antibacterial activity against Staphylococcus aureus ATCC 25923 in presence of FeCl3 to antibacterial activity against Staphylococcus aureus ATCC 25923; format: functional
Staphylococcus aureus [26] = experiment: Antibiofilm activity against Staphylococcus aureus ATCC 25923 at 1 to 2 times of MIC after 24 hrs by crystal violet staining based assay; format: functional, organism-based
Escherichia coli [27] = experiment: Induction of membrane disruption in Escherichia coli ATCC 25922 assessed as fracture in membrane at 4 times of MIC after 2 hrs by SEM analysis; format: functional, organism-based
Escherichia coli [28] = experiment: Induction of ROS generation in Escherichia coli ATCC 25922; format: functional, organism-based
[29] = Klebsiella pneumoniae, 700603, 18 h

CC1(C)S[C@@H]2[C@H](NC(=O)Cc3ccccc3)C(=O)N2[C@H]1C(=O)O [PENICILLIN G]
MIC (Escherichia coli [1]; ATCC 25922, 18 h): 64 µM (≈ 21.4 µg/mL) | MIC (Escherichia coli [2]; ATCC 43837, 18 h): 8 µM (≈ 2.68 µg/mL) | MIC (Klebsiella pneumoniae; [29]): > 128 µM | MIC (Pseudomonas aeruginosa; ATCC 27853, 18 h): > 128 µM | MIC (Staphylococcus aureus [3]): < 1 µM | MIC (Staphylococcus aureus [4]): 32 µM (≈ 10.7 µg/mL) | MIC (Bacillus subtilis): < 1 µM

CN[C@H](CC(C)C)C(=O)N[C@H]1C(=O)N[C@@H](CC(N)=O)C(=O)N[C@H]2C(=O)N[C@H]3C(=O)N[C@H](C(=O)N[C@H](C(=O)O)c4cc(O)cc(O)c4-c4cc3ccc4O)[C@H](O)c3ccc(c(Cl)c3)Oc3cc2cc(c3O[C@@H]2O[C@H](CO)[C@@H](O)[C@H](O)[C@H]2O[C@H]2C[C@](C)(N)[C@H](O)[C@H](C)O2)Oc2ccc(cc2Cl)[C@H]1O [VANCOMYCIN]
MIC (Escherichia coli [1]): inactive | MIC (Escherichia coli [2]): inactive | MIC (Klebsiella pneumoniae): inactive | MIC (Pseudomonas aeruginosa): inactive | MIC (Staphylococcus aureus [3]): < 1 µM | MIC (Staphylococcus aureus [4]): < 1 µM | MIC (Bacillus subtilis): < 1 µM

CCCCCC(=O)NCC(=O)N[C@@H](CC(C)C)C(=O)N[C@@H](CC(C)C)C(=O)N[C@H](CCCCN)C(=O)N[C@@H](CCCNC(=N)N)C(=O)N[C@H](C(=O)N[C@H](CCCCN)C(=O)N[C@H](C(=O)N[C@@H](CC(C)C)C(=O)N[C@@H](CC(C)C)C(N)=O)[C@@H](C)O)[C@@H](C)CC
MIC (Escherichia coli [1]; ATCC 25922, 18 h): 128 µM (≈ 160 µg/mL) | MIC (Escherichia coli [2]; ATCC 43837, 18 h): > 128 µM | MIC (Klebsiella pneumoniae; [29]): > 128 µM | MIC (Pseudomonas aeruginosa; ATCC 27853, 18 h): 32 µM (≈ 40.1 µg/mL) | MIC (Staphylococcus aureus [3]): > 128 µM | MIC (Staphylococcus aureus [4]): > 128 µM | MIC (Bacillus subtilis): 16 µM (≈ 20 µg/mL)

CC[C@H](C)CCCCC(=O)N[C@@H](CCN)C(=O)N[C@H](C(=O)N[C@@H](CCN)C(=O)N[C@H]1CCNC(=O)[C@H]([C@@H](C)O)NC(=O)[C@H](CCN)NC(=O)[C@H](CCN)NC(=O)[C@H](CC(C)C)NC(=O)[C@@H](Cc2ccccc2)NC(=O)[C@H](CCN)NC1=O)[C@@H](C)O (X1-[Dab]T[Dab][Dab][Dab][dF]L[Dab][Dab]T; lactam 4-C)
MIC (Escherichia coli [1]; ATCC 25922, 18 h): 4 µM (≈ 4.81 µg/mL) | MIC (Escherichia coli [2]; ATCC 43837, 18 h): 2 µM (≈ 2.41 µg/mL) | MIC (Klebsiella pneumoniae; [29]): 8 µM (≈ 9.63 µg/mL) | MIC (Pseudomonas aeruginosa; ATCC 27853, 18 h): 2 µM (≈ 2.41 µg/mL) | MIC (Staphylococcus aureus [3]): 16 µM (≈ 19.3 µg/mL) | MIC (Staphylococcus aureus [4]): 16 µM (≈ 19.3 µg/mL) | MIC (Bacillus subtilis): 8 µM (≈ 9.63 µg/mL) | MIC (Escherichia coli [5]): 16 µM | MIC (Escherichia coli [6]): 16 µM | MIC (Escherichia coli [7]): 8 µM | MIC (Escherichia coli [8]): 4 µM | MIC (Staphylococcus aureus [9]): 64 µM | MIC (Staphylococcus aureus [10]): 16 µM | MIC (Staphylococcus aureus [11]): 32 µM | MIC (Staphylococcus aureus [12]): 16 µM | Activity (Escherichia coli [13]): 8.49% | Activity (Escherichia coli [14]): 3.47% | Activity (Escherichia coli [15]): Active | Activity (Escherichia coli [16]): Active | Activity (Escherichia coli [17]): Active | Activity (DNA): inactive | Ratio (Escherichia coli [18]): 2 - 4 | Ratio (Escherichia coli [19]): 2 - 4 | Ratio (Escherichia coli [20]): 2 - 4 | Ratio (Escherichia coli [21]): 2 - 4 | Ratio (Staphylococcus aureus [22]): 2 - 4 | Ratio (Staphylococcus aureus [23]): 2 - 4 | Ratio (Staphylococcus aureus [24]): 2 - 4 | Ratio (Staphylococcus aureus [25]): 2 - 4 | inhibition (Staphylococcus aureus [26]): Active | Activity (Escherichia coli [27]): Active | Activity (Escherichia coli [28]): inactive

CC[C@H](C)[C@H](NC(=O)[C@H](CCCNC(=N)N)NC(=O)[C@@H](CCCCN)NC(=O)[C@H](CC(C)C)NC(=O)[C@H](CC(C)C)NC(=O)CN)C(=O)N[C@H](CCCCN)C(=O)N[C@H](C(=O)N[C@@H](CC(C)C)C(=O)N[C@@H](CC(C)C)C(N)=O)[C@@H](C)O (H-GLL[dK]RI[dK]TLL-NH2)
MIC (Escherichia coli [1]; ATCC 25922, 18 h): > 128 µM | MIC (Escherichia coli [2]; ATCC 43837, 18 h): > 128 µM | MIC (Klebsiella pneumoniae; [29]): > 128 µM | MIC (Pseudomonas aeruginosa; ATCC 27853, 18 h): 64 µM (≈ 73.8 µg/mL) | MIC (Staphylococcus aureus [3]): > 128 µM | MIC (Staphylococcus aureus [4]): > 128 µM | MIC (Bacillus subtilis): 64 µM (≈ 73.8 µg/mL)

CCCC(=O)NCC(=O)N[C@@H](CC(C)C)C(=O)N[C@@H](CC(C)C)C(=O)N[C@H](CCCCN)C(=O)N[C@@H](CCCNC(=N)N)C(=O)N[C@H](C(=O)N[C@H](CCCCN)C(=O)N[C@H](C(=O)N[C@@H](CC(C)C)C(=O)N[C@@H](CC(C)C)C(N)=O)[C@@H](C)O)[C@@H](C)CC
MIC (Escherichia coli [1]; ATCC 25922, 18 h): > 128 µM | MIC (Escherichia coli [2]; ATCC 43837, 18 h): > 128 µM | MIC (Klebsiella pneumoniae; [29]): > 128 µM | MIC (Pseudomonas aeruginosa; ATCC 27853, 18 h): 128 µM (≈ 157 µg/mL) | MIC (Staphylococcus aureus [3]): > 128 µM | MIC (Staphylococcus aureus [4]): > 128 µM | MIC (Bacillus subtilis): 128 µM (≈ 157 µg/mL)
